Format in all cases: functional, cell-based
The subject of one test is HeLa. Description: Anticancer activity against human HeLa cells assessed as cell growth inhibition incubated for 4 days by MTT assay. The conditions noted are these: 96 h. For orientation: Formazan colour is commonly taken as a measure of viable cells.
In a further test the test system is K562. Description: Anticancer activity against human K562 cells assessed as cell growth inhibition incubated for 4 days by MTT assay. As to conditions: K562, 96 h.
Test [1] in a line: Anticancer activity against human MM649 cells assessed as cell growth inhibition incubated for 4 days by MTT assay. The conditions noted are these: MM649, 96 h.

For eleven molecules, IC50 results are on record in ChEMBL document CHEMBL6177972 (J Nat Prod, 2025).

The IC50 is the concentration that inhibits the measured activity by half. In the case of `CCCCCCCCCCCCC[C@H]1CC(=O)C[C@@]2(C[C@@H]3OC(=O)C=C[C@@H]3O2)O1`, the half-inhibitory concentration (IC50) was found to be 3.9 µM in the test on HeLa, 11.9 µM with K562 and 3.1 µM in test [1].
Taken in the same sequence, the figures for `CC(=O)O[C@H]1C[C@H](C[C@@H](O)CCCCCCCCc2ccc3c(c2)OCO3)O[C@@]2(C1)C[C@@H]1OC(=O)C=C[C@@H]1O2` were 27.1 µM, 39.6 µM and 24.5 µM.
Taken in the same sequence, the figures for `O=C1C[C@H](CCCCCCCCc2ccc3c(c2)OCO3)O[C@@]2(C1)C[C@@H]1OC(=O)C=C[C@@H]1O2` were 5.9 µM, 16.6 µM and 5.9 µM.
Taken in the same sequence, the figures for `O=C1C=C[C@H](O)[C@H](CCCCCCCCc2ccc3c(c2)OCO3)O1` were 5.6 µM, 13.6 µM and 7.6 µM.
For `CCCCCCCCCCCCC[C@H]1C[C@H](O)C[C@@]2(C[C@@H]3OC(=O)C=C[C@@H]3O2)O1`, the values for the IC50 (in the test with HeLa; in the test on K562; in test [1]) were 4.2 µM, 15.6 µM and 2.7 µM, respectively.
Taken in the same sequence, the figures for `O=C1C=C[C@@H]2O[C@]3(C[C@@H](O)C[C@H](CCCCCCCCc4ccc5c(c4)OCO5)O3)C[C@@H]2O1` were 13.6 µM, 25.1 µM and 10.8 µM.
In the same order, the values of `O=C1C=C[C@@H]2O[C@]3(C[C@@H](O)C[C@H](C[C@@H](O)CCCCCCCCc4ccc5c(c4)OCO5)O3)C[C@@H]2O1` are 18.1 µM, 25.8 µM and 14.9 µM.
In the same order, the values of `CCCCCCCCCCCCC[C@H]1C[C@H](OC(C)=O)C[C@@]2(C[C@@H]3OC(=O)C=C[C@@H]3O2)O1` are 2.3 µM, 10.5 µM and 1.9 µM.
Regarding `CC(=O)O[C@H]1C[C@H](CCCCCCCCc2ccc3c(c2)OCO3)O[C@@]2(C1)C[C@@H]1OC(=O)C=C[C@@H]1O2`, the IC50 in the test with HeLa was determined as 4.5 µM; in the test with K562, 13.5 µM; in test [1], 3.9 µM.
Consider `CCCCCCCCCCCCC[C@H](O)C[C@H]1C[C@H](O)C[C@@]2(C[C@@H]3OC(=O)C=C[C@@H]3O2)O1`, for which the half-inhibitory concentration (IC50) with HeLa was found to be 5.1 µM; in the test with K562, 20.3 µM; in test [1] it was 3.3 µM.
Consider `COc1cccc2c1C(=O)c1c(O)c3c(c(O)c1C2=O)C[C@@](O)(C(=O)CO)C[C@@H]3O[C@H]1C[C@H](N)[C@H](O)[C@H](C)O1` [DOXORUBICIN], for which the IC50 in the test on K562 was 0.12 µM; in test [1] it was 0.05 µM.
